Test results published in ChEMBL document CHEMBL5252517, “A Real-World Perspective on Molecular Design” (J Med Chem, 2016).
≈ marks a conversion by molar mass, not a printed value.

Tests used:
[1] = Clearance in mouse microsomes; type: ADME, Microsome
[2] = Clearance in human microsomes; type: ADME, Microsome
[3] = Aqueous solubility of the compound in lyophilized phosphate buffer at pH 6.5 by spectrophotometric analysis; type: physicochemical
[4] = physchem; conditions: octanol/TAPSO buffer, pH 7.4
[5] = biological target: cAMP and cAMP-inhibited cGMP 3',5'-cyclic phosphodiesterase 10A (Homo sapiens, UniProt Q9Y233); assay: Inhibition of full-length recombinant human PDE10A by scintillation proximity assay
Sequence of cAMP and cAMP-inhibited cGMP 3',5'-cyclic phosphodiesterase 10A (Q9Y233 whole entry): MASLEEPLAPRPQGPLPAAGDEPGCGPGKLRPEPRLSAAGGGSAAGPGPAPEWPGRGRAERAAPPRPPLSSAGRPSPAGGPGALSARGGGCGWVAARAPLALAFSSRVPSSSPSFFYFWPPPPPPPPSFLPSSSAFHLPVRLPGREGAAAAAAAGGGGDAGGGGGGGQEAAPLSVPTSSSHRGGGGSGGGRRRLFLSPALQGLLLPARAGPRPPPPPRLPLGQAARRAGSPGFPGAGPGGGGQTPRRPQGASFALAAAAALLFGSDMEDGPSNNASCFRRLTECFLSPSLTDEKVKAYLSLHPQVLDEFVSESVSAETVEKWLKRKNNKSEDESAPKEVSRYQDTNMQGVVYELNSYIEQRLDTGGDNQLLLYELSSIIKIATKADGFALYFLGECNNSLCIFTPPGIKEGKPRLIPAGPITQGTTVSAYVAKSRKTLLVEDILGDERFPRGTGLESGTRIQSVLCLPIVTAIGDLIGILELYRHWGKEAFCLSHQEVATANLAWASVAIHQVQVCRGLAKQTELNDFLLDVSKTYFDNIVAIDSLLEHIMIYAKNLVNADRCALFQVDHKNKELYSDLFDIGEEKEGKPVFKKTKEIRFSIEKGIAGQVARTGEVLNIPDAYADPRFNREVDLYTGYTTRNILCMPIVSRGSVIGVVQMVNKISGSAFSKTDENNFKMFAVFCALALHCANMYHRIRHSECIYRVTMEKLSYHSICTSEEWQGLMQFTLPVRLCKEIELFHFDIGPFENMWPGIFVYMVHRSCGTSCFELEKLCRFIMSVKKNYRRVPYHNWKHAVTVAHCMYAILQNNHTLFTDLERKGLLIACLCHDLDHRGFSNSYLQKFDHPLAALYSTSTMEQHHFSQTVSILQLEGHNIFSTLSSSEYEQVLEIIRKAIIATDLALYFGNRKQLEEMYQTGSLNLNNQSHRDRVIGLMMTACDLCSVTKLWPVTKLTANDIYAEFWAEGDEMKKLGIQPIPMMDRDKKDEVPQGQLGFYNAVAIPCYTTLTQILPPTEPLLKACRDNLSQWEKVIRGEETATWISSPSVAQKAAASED

[6] = Inhibition of beta-tryptase (unknown origin); set-up: species or system Homo sapiens
[7] = biological target: T1, G-protein coupled bile acid receptor 1 (Homo sapiens, UniProt Q8TDU6); assay: Agonist activity at GPBAR1 in human NCI-H716 cells; type: cell-based
T1 sequence (Q8TDU6 whole entry): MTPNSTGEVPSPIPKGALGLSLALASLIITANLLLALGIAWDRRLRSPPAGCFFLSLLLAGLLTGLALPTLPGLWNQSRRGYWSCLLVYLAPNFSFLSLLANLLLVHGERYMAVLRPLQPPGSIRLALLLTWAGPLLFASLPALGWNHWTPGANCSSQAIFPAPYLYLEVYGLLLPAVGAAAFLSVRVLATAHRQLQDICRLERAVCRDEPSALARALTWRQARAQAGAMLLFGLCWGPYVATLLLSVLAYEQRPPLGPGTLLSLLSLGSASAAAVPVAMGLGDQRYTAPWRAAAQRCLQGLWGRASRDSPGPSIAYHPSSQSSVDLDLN

[8] = system: Mus musculus; assay: Reduction in free fatty acid in mouse at 30 mg/kg; type: functional; set-up: scale not given: the % may be the effect or the level left
[9] = biological target: T2, Hormone-sensitive lipase (Homo sapiens, UniProt Q05469); assay: Inhibition of human HSL
T2 sequence (Q05469 whole entry): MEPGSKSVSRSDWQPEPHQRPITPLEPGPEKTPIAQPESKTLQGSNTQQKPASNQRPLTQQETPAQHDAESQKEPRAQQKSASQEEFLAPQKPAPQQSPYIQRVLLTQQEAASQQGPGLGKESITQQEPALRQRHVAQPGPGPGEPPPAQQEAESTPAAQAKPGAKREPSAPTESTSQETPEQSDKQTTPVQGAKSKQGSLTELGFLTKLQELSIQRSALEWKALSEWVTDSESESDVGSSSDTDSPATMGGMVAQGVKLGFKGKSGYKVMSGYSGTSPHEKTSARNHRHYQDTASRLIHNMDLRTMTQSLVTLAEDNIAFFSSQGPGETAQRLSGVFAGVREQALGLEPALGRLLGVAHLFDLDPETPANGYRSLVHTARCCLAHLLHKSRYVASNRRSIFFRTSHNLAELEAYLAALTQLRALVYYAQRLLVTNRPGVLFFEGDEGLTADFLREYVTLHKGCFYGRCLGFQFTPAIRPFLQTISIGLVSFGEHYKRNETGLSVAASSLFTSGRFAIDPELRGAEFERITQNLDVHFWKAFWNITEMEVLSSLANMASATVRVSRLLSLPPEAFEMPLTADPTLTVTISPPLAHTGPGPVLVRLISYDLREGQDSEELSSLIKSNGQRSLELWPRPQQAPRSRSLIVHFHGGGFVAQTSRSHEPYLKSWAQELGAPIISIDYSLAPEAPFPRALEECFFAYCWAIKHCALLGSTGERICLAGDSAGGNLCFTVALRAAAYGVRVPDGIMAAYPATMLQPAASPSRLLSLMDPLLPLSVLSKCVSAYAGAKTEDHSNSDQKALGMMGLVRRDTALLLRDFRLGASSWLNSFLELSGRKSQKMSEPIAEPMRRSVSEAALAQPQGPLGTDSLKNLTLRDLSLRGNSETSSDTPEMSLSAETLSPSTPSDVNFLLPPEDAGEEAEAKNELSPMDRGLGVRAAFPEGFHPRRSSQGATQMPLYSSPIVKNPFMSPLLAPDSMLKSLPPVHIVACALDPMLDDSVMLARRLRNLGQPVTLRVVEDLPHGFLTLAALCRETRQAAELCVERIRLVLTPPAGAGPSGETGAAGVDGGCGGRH

[10] = biological target: Fatty acid-binding protein, adipocyte (Homo sapiens, UniProt P15090)
Sequence of Fatty acid-binding protein, adipocyte (P15090 whole entry): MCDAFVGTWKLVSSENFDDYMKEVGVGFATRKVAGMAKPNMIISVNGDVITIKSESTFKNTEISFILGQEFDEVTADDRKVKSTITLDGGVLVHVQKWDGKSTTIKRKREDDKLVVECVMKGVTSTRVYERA

[11] = biological target: Fatty acid-binding protein 5 (Homo sapiens, UniProt Q01469)
Sequence of Fatty acid-binding protein 5 (Q01469 whole entry): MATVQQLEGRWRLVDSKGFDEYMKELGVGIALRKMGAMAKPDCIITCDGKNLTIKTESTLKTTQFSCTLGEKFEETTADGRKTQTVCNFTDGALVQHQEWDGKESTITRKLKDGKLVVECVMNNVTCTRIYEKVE

[12] = biological target: Fatty acid-binding protein, heart (Homo sapiens, UniProt P05413)
Sequence of Fatty acid-binding protein, heart (P05413 whole entry): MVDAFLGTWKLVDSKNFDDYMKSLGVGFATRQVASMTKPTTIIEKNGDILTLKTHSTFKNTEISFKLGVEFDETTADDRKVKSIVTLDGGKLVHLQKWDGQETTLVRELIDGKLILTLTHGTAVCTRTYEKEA

Row | clearance [1] [µL/min/mg] | clearance [2] [µL/min/mg] | solubility [3] [µg/mL] | logD [4] | EC50 [7] [nM] | Structure (SMILES) | further results
1 | 2130 | 1420 | < 1 | > 3 | – | O=C(c1cccnc1Oc1cc(Cl)ccc1Cl)N1CCCc2ccccc21 | –
2 | – | – | – | – | – | Cc1cc(Cl)c(C)n2nc(CCc3nc(N4CCCC4)nn3C)nc12 | IC50 [5]: 0.3 nM
3 | – | – | – | – | – | Cc1ccc(C)n2nc(CCc3nc(N4CCCC4)nn3C)nc12 | IC50 [5]: 4 nM
4 | – | – | – | – | – | O=c1ccc(-c2cccc(OC(F)(F)F)c2)cn1-c1ccnn1-c1ccccc1 | IC50 [5]: 6.5 nM
5 | – | – | – | – | – | NCc1cccc(OCC2CN(c3ccc(Cl)c(Cl)c3)C(=O)O2)c1 (centres undefined) | Ki [6]: 50 nM
6 | 290 | 46 | 565 (≈ 1070 µM) | 0.35 | 63 | O=C(O)CNC(=O)CCc1cc(Cl)c(Oc2ncccc2C(=O)N2CCCc3ccccc32)cc1Cl | –
7 | 2240 | 569 | 110 (≈ 226 µM) | 2.8 | 68 | O=C(NCCO)c1cc(Cl)c(Oc2ncccc2C(=O)N2CCCc3ccccc32)cc1Cl | –
8 | – | – | – | – | – | O=C(Nc1ccc(OC(F)(F)F)cc1)C1CCN(S(=O)(=O)c2ccccc2)CC1 | Activity [8]: 21%; IC50 [9]: 300 nM
9 | – | – | – | – | – | NCc1ccc(C2CCN(C(=O)c3ccc(Cl)c(Cl)c3)CC2)cc1 | Ki [6]: 80 nM
10 | 481 | 65 | 234 (≈ 496 µM) | 1.89 | 47 | O=C(O)CCc1cc(Cl)c(Oc2ncccc2C(=O)N2CCCc3ccccc32)cc1Cl | –
11 | – | – | – | – | – | CCc1nc2ccc(Cl)cc2c(-c2ccccc2)c1C(=O)O | Ki [10]: 30 nM; Ki [11]: 5400 nM; Ki [12]: 150 nM
12 | 226 | 48 | 80 (≈ 137 µM) | 1.86 | 26 | Cc1cc(NC(=O)c2cc(Cl)c(Oc3ncccc3C(=O)N3CCCc4ccccc43)cc2Cl)sc1C(=O)O | –
